Test results reported in patent US20250129093A1, “COMPOSITIONS AND METHODS RELATING TO ATP/P2X7R SIGNALING INHIBITION” (THE CHILDREN'S MEDICAL CENTER CORPORATION, priority 2022, published 2025).
Entries after “also recorded” stand apart in the source; their conditions may differ.

Key:
[1] = tested on: P2X7R signaling through eATP; assay: BzATP-stimulated CD4+ T cells from human PBMCs, expression of Th2-related factors; assay type: cell-based; conditions: for inhibition of activation of P2X7R signaling through eATP (expression of Th2-related factors IL-4 and IRF4): human CD4+ T cells stimulated with benzoyl ATP (BzATP)
Excerpt: Peripheral blood mononuclear cell (PBMCs) were isolated from collected human blood samples and recovered CD4+ T cells were purified and treated with different compounds. In particular cells were activated upon stimulation with benzoyl ATP (BzATP) and treated with human P2X7R inhibitor CE-224,535, P2X7 receptor antagonist oATP and the 6 small molecules identified in the bioinformatics and HTVS approaches above.

[2] = tested on: P2X7R−/− mice receiving a Bm12 heart; assay: Heart allograft survival in P2X7R-/- mice receiving a Bm12 heart; assay type: in vivo; conditions: Bm12 heart transplant, p=0.04
Excerpt: (§1) The P2X7R mutation rs3751143 is associated with the development of increased immunological events, particularly with the development of a HyperTh-17 syndrome, which is mainly characterized by an imbalance between T-helper cells which favors generation of Th-17 cells.

[3] = tested on: P2X7R signaling through eATP; conditions: cells of individuals who do not carry the P2X7R mutation; cited from earlier work
C57BL6 (B6) mice = assay: Survival (longevity) of C57BL6 (B6) mice; assay type: in vivo; conditions: 7.5 mg/Kg
Excerpt: Given that administration of P2X7R inhibitors is associated with a slow-down of metabolic processes within activated cells/tissues (9) and the effect of eATP in favoring cell senescence, it is contemplated herein that this mechanism could be responsible for promoting longevity and prolonging survival.

[4] = tested on: CD4+ T cells obtained from individuals carrying the P2X7R mutation; assay: Th17 generation in vitro in CD4+ T cells from individuals carrying the P2X7R mutation; assay type: cell-based, human; conditions: inhibitor added to the cell culture, carriers of P2X7R mutation rs3751143
Excerpt: as §1

Compound: Cc1ccccc1Nc1nc2nonc2nc1N/N=C\c1cccc2ccccc12 [compound 4, [6-(N′-Naphthalen-1-ylmethylene-hydrazino)-[1,2,5]oxadiazolo[3,4-b]pyrazin-5-yl]-o-tolyl-amine]
- inhibition of activation of P2X7R signaling through eATP (expression of Th2-related factors IL-4 and IRF4) [1]: significative ability to inhibit the activation of P2X7R signaling

Compound: Nc1ncnc2c1ncn2[C@@H](C=O)O[C@@H](C=O)COP(=O)(O)OP(=O)(O)OP(=O)(O)O [oATP]
- allograft survival [2]: significantly prolongs allograft survival
- neutralizing activation of P2X7R signaling through eATP [3]: capable of neutralizing activation of P2X7R signaling
- MST (C57BL6 (B6) mice): 19.5 weeks
- treated animals alive (C57BL6 (B6) mice; at 17 weeks): 60%
- survival as compared to untreated controls (C57BL6 (B6) mice; p=0.01, 7.5 mg/kg): significantly prolongs survival; also recorded: increased survival
- Th17 generation [4]: at least partially inhibited; also recorded: partially abrogated

Compound: COc1ccc(/C=N\Nc2cc(C)nc(NCc3ccccc3)n2)c(OC)c1 [Compound #5, Benzyl-{4-[N′-(2,4-dimethoxy-benzylidene)-hydrazino]-6-methyl-pyrimidin-2-yl}-amine]
- effect on the expression of Th2-related factors GATA3, IL-4 and IRF4 ([1]; PBMCs, FIG. 2, compared with CE-224,535 and oATP): effect comparable to that of human P2X7R inhibitor CE-224,535 and P2X7 receptor antagonist oATP
- inhibition of activation of P2X7R signaling through eATP (expression of Th2-related factors IL-4 and IRF4) [1]: significative ability to inhibit the activation of P2X7R signaling

Compound: OC(CNCc1ccccc1)COc1ccc(OCC(O)CNCc2ccccc2)cc1 (centres unmarked) [compound 3, 1-Benzylamino-3-[4-(3-benzylamino-2-hydroxy-propoxy)-phenoxy]-propan-2-ol]
- inhibition of activation of P2X7R signaling through eATP (expression of Th2-related factors IL-4 and IRF4) [1]: significative ability to inhibit the activation of P2X7R signaling

Compound: O=C(O)c1ccccc1-c1ccccc1C(=O)Nc1cccc(-c2nc3ccccc3[nH]2)c1 [compound 6, 2′-[3-(1H-Benzoimidazol-2-yl)-phenylcarbamoyl]-biphenyl-2-carboxylic acid]
- inhibition of activation of P2X7R signaling through eATP (expression of Th2-related factors IL-4 and IRF4) [1]: significative ability to inhibit the activation of P2X7R signaling
